Experimental data taken from patent publication US5886178A, “3-aroylbenzylpyridazinone derivatives” (Syntex (U.S.A.) Inc., priority 1997, dated 1999).

Assays:
[1] = Carrageenan-induced paw edema in the rat (anti-inflammatory activity); format: in vivo; conditions: 3 h, 10 mg/Kg, oral, female rats, read-out: % inhibition of increase in hind paw weight
Protocol: The anti-inflammatory activity of compounds of this invention was determined by measuring the inhibition of carrageenan-induced paw edema in the rat, using a modification of the method described in Winter C. k et al (1962) "Carrageenan-Induced Edema in Hind Paw of the Rat as an Assay for Anti-inflammatory Drugs". Proc. Soc. Exp. Biol. Med. 111: 544-547. This assay has been used as a primary in vivo screen for anti-inflammatory activity of most NSAIDs, and is considered predictive of human efficacy. Briefly, test materials were administered orally to female rats in a volume of 1 ml prepared as solutions or suspensions in an aqueous vehicle containing 0.9% NaCl, 0.5% sodium carboxymethyl-cellulose, 0.4% polysorbate 80, 0.9% benzyl alcohol and 97.3% distilled water. Control rats received vehicle alone. After 1 hr 0.05 ml of a 0.5% solution of Carrageenan (Type IV Lambda, Sigma Chemical Co.) in 0.9% saline was injected into the subplantar region of the right hind paw. Three hours later the rats were euthanized in a carbon dioxide atmosphere; hind paws were removed by severing at the tatso-crural joint; and the left and right paws were weighed. The increase in weight of the right paw over the left paw was obtained for each animal and the mean increases were calculated for each group. The anti-inflammatory activity of the test materials is expressed as the percent inhibition of the increase in hind paw weight of the test group relative to the vehicle-dosed control group.
The anti-inflammatory activities (expressed as % inhibition) of some of the compounds of the invention were: […]

COX I = COX I (Homo sapiens, UniProt P23219); assay: Inhibition of COX I in vitro, partially purified enzyme, radiometric assay; format: biochemical; design: made in house; conditions: 20 micromolar arachidonic acid
Sequence of COX I (P23219 24-599): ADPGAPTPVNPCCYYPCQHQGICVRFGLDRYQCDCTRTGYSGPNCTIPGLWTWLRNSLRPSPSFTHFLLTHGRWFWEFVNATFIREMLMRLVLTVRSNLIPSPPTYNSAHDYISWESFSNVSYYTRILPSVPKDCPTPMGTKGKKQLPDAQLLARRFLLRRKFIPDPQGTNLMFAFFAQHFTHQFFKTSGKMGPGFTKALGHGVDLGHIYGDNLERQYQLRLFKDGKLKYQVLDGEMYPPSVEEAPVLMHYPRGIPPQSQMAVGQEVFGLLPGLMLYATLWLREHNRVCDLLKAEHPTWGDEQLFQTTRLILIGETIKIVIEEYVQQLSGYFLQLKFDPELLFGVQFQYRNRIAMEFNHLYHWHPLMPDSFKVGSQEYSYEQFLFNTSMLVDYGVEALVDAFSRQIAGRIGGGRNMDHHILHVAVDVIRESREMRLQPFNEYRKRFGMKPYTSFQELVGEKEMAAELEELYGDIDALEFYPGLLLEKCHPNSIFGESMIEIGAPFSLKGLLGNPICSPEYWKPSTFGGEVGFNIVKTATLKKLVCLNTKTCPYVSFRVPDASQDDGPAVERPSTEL
Protocol: The COX I and COX II inhibitory activity of compounds of this invention in vitro was determined using partially purified COX I and COX II enzymes, prepared as described in J. Barnett et al, Biochim. Biophys.
COX I and COX II samples were diluted with Tris-HCl buffer (50 mM Tris-HCl, pH 7.9) containing 2 mM EDTA and 10% glycerol and reconstituted by incubating first with 2 mM phenol for 5 minutes and then with 1 micromolar hematin for an additional 5 minutes. 125 μl of the reconstituted COX I or COX II enzyme were preincubated for 10 minutes at room temperature in a shaking water bath with the compounds of the invention dissolved in 2-15 μl of DMSO or the carrier vehicles (control samples). The enzyme reaction was initiated by adding 25 μl of 1-[14C]arachidonic acid (80,000-100,000 cpm/tube; 20 micromolar final concentration) and the reaction was allowed to continue for an additional 45 seconds. The reaction was terminated by adding 100 μl of 2N HCl and 750 μl water. An aliquot (950 μl) of the reaction mixture was loaded onto a 1 ml C18 Sep-Pak column (J. T. Baker, Phillipsburg, N.J.) which had been previously washed with 2-3 ml methanol and equilibrated with 5-6 ml distilled water. Oxygenated products were quantitatively eluted with 3 ml of acetonitrile/water/acetic acid (50:50:0.1, v/v) and the radioactivity in the eluate determined in a scintillation counter.

[2] = tested on: prostaglandin E2 synthesis; assay: Inhibition of eicosanoid (PGE2) synthesis in vivo, carrageenan air-pouch model in rats; design: species or system rat; conditions: 10 mg/Kg, oral, male rats
Protocol: In this assay, an air-pouch is created in the rat and the PGE2 levels in the air-pouch exudate are measured by enzyme immunoassay. Briefly, male rats were anesthetized using a 60:40 CO2 :O2 mixture and subsequently injected subcutaneously with 20 ml of sterilized air, under aseptic conditions, in the proximal area of the dorsum. This injection of sterile air causes the creation of a subcutaneous "air pouch". The next day, a further 10 ml of sterile air was injected into the previously formed pouch using the same technique. […] Control rats received vehicle alone. After 30 minutes, 5 ml of a 0.5% solution of carrageenan (Sigma, Lambda Type IV) was injected into the air pouch. The rats were euthanized 3 hr after the compound administration. […] The total exudate volume was recorded, and the samples were analyzed for PGE2 and 6-keto PGF1 by ELISA (Titerzyme®, PerSeptive Diagnostics) and TxB2 by radioimmuno assay (New England Nuclear Research, Catalog No. NEK-037), according to the manufacturer's directions.
The mean concentrations of PGE2 were calculated for each group. The anti-inflammatory activity of test materials is expressed as the percent inhibition of PGE2 formation in the test group relative to the control group.

IC50 (COX I): 391 µM
SMILES: COc1ccc(C(=O)c2cccc(Cc3ccc(=O)[nH]n3)c2C)cc1 [Cpd 11, 6-[3-(4-methoxybenzoyl)-2-methylbenzyl]-2H-pyridazin-3-one]
inhibition in vivo at 10 mg/kg [1]: 44%
% inhibition of air pouch PGE2 formation [2]: 80%
